Results: patent US11986532B2 (Arvinas Operations, Inc., priority 2021, dated 2024)
Where two headings read alike, the source gives them in different places.

Biological target: T1, BCL6 (Homo sapiens, UniProt P41182)
T1 construct: endogenous in cells; host or cells: T47D breast cancer epithelial cells
Assay: Immunofluorescence protocol for high content imaging of BCL6 (degradation) in T47D cells, 3 days compound treatment
Assay type: cell-based
Details: for DC50: read-out: Mean DC50 (nM)* category; for Dmax: read-out: Mean Dmax (%)** category
In short: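 For degradation, compound series (3-fold, 11 points, top 0.1 or 1 μM final) were added to adherent T47D cultures for 3 days. BCL6 immunostaining used a rabbit antibody at 1:300 and an Alexa-488 secondary, with imaging at 10× magnification.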

[1] = T47D cells, 3 days compound treatment

Row | Structure (SMILES) | DC50 [1] | Dmax [1] | Dmax (T47D) | DC50
1 | CNC(=O)COc1cc2cc(Nc3nc(N4CCC(O[C@H]5C[C@H](N6CCN(c7ccc8c(c7)C(=O)N(C7CCC(=O)NC7=O)C8=O)[C@@H](C)C6)C5)CC4)ncc3Cl)ccc2n(C(C)C)c1=O (stereo partly drawn) [Compound 391, 2-({6-[(5-chloro-2-{4-[(1r,3r)-3-[(3S)-4-[2-(2,6-dioxopiperidin-3-yl)-1,3-dioxo-2,3-dihydro-1H-isoindol-5-yl]-3-methylpiperazin-1-yl]cyclobutoxy]piperidin-1-yl}pyrimidin-4-yl)amino]-2-oxo-1-(propan-2-yl)-1,2-dihydroquinolin-3-yl}oxy)-N-methylacetamide] |  |  | ≥ 70% | < 10 nM
2 | CNC(=O)COc1cc2cc(Nc3nc(N4CCC(O[C@H]5C[C@H](N6CC=C(c7ccc8c(c7)CN(C7CCC(=O)NC7=O)C8=O)CC6)C5)CC4)ncc3Cl)ccc2n(C(C)C)c1=O (stereo partly shown) [Compound 323, 2-({6-[(5-chloro-2-{4-[(1r,3r)-3-{4-[2-(2,6-dioxopiperidin-3-yl)-1-oxo-2,3-dihydro-1H-isoindol-5-yl]-1,2,3,6-tetrahydropyridin-1-yl}cyclobutoxy]piperidin-1-yl}pyrimidin-4-yl)amino]-2-oxo-1-(propan-2-yl)-1,2-dihydroquinolin-3-yl}oxy)-N-methylacetamide] |  |  | 50 to 70% | < 10 nM
3 | CNC(=O)COc1cc2cc(Nc3nc(N4CCC(O[C@H]5C[C@H](N6CCN(c7cc(C)c8c(c7)C(=O)N(C7CCC(=O)NC7=O)C8=O)CC6)C5)CC4)ncc3Cl)ccc2n(C(C)C)c1=O (stereo partly shown) [Compound 378, 2-({6-[(5-chloro-2-{4-[(1r,3r)-3-{4-[2-(2,6-dioxopiperidin-3-yl)-7-methyl-1,3-dioxo-2,3-dihydro-1H-isoindol-5-yl]piperazin-1-yl}cyclobutoxy]piperidin-1-yl}pyrimidin-4-yl)amino]-2-oxo-1-(propan-2-yl)-1,2-dihydroquinolin-3-yl}oxy)-N-methylacetamide] |  |  | 50 to 70% | 10 to 50 nM
4 | CNC(=O)COc1cc2cc(Nc3nc(N4CCC(O[C@H]5C[C@H](N6CCN(c7cc8c(cc7F)C(=O)N(C7CCC(=O)NC7=O)C8=O)[C@H](C)C6)C5)CC4)ncc3Cl)ccc2n(C(C)C)c1=O (stereo partly drawn) [Compound 408, 2-({6-[(5-chloro-2-{4-[(1r,3r)-3-[(3R)-4-[2-(2,6-dioxopiperidin-3-yl)-6-fluoro-1,3-dioxo-2,3-dihydro-1H-isoindol-5-yl]-3-methylpiperazin-1-yl]cyclobutoxy]piperidin-1-yl}pyrimidin-4-yl)amino]-2-oxo-1-(propan-2-yl)-1,2-dihydroquinolin-3-yl}oxy)-N-methylacetamide] |  |  | 50 to 70% | 50 to 100 nM
5 | CNC(=O)COc1cc2cc(Nc3nc(N4CCC(O[C@H]5C[C@H](N6CCC(c7ccc8c(c7)CN(C7CCC(=O)NC7=O)C8=O)C(F)(F)C6)C5)CC4)ncc3Cl)ccc2n(C(C)C)c1=O (stereo partly shown) [Compound 218, 2-[[6-[[5-chloro-2-[4-[3-[4-[2-(2,6-dioxo-3-piperidyl)-1-oxo-isoindolin-5-yl]-3,3-difluoro-1-piperidyl]cyclobutoxy]-1-piperidyl]pyrimidin-4-yl]amino]-1-isopropyl-2-oxo-3-quinolyl]oxy]-N-methyl-acetamide] |  |  | ≥ 70% | < 10 nM
6 | CCC(C)n1c(=O)c(OCC(=O)NC)cc2cc(Nc3nc(N4CCC(O[C@H]5C[C@H](N6CCC(c7ccc8c(c7F)CN(C7CCC(=O)NC7=O)C8=O)CC6)C5)CC4)ncc3Cl)ccc21 (stereo partly shown) [Compound 424, 2-{[1-(butan-2-yl)-6-[(5-chloro-2-{4-[(1r,3r)-3-{4-[2-(2,6-dioxopiperidin-3-yl)-4-fluoro-1-oxo-2,3-dihydro-1H-isoindol-5-yl]piperidin-1-yl}cyclobutoxy]piperidin-1-yl}pyrimidin-4-yl)amino]-2-oxo-1,2-dihydroquinolin-3-yl]oxy}-N-methylacetamide] |  |  | ≥ 70% | < 10 nM
7 | CNC(=O)COc1cc2cc(Nc3nc(N4CCC(OC5CCC6(CC5)CN(c5ccc7c(c5Cl)CN(C5CCC(=O)NC5=O)C7=O)C6)CC4)ncc3Cl)ccc2n(C(C)C)c1=O (stereo not shown) [Compound 383, 2-{[6-({5-chloro-2-[4-({2-[4-chloro-2-(2,6-dioxopiperidin-3-yl)-1-oxo-2,3-dihydro-1H-isoindol-5-yl]-2-azaspiro[3.5]nonan-7-yl}oxy)piperidin-1-yl]pyrimidin-4-yl}amino)-2-oxo-1-(propan-2-yl)-1,2-dihydroquinolin-3-yl]oxy}-N-methylacetamide] |  |  | ≥ 70% | < 10 nM
8 | CNC(=O)COc1cc2cc(Nc3nc(N4CCC(O[C@H]5C[C@H](N6CCC(c7ccc8c(c7C(F)(F)F)CN(C7CCC(=O)NC7=O)C8=O)CC6)C5)CC4)ncc3Cl)ccc2n(C(C)C)c1=O (stereo partly shown) [Compound 226, 2-({6-[(5-chloro-2-{4-[(1r,3r)-3-{4-[2-(2,6-dioxopiperidin-3-yl)-1-oxo-4-(trifluoromethyl)-2,3-dihydro-1H-isoindol-5-yl]piperidin-1-yl}cyclobutoxy]piperidin-1-yl}pyrimidin-4-yl)amino]-2-oxo-1-(propan-2-yl)-1,2-dihydroquinolin-3-yl}oxy)-N-methylacetamide] |  |  | ≥ 70% | < 10 nM
9 | CNC(=O)COc1cc2c(F)c(Nc3nc(N4CCC(CN5CCC6(CC5)CN(c5ccc7c(c5)C(=O)N(C5CCC(=O)NC5=O)C7=O)C6)CC4)ncc3Cl)ccc2n(C(C)C)c1=O (stereo not shown) [Compound 347, 2-{[6-({5-chloro-2-[4-({2-[2-(2,6-dioxopiperidin-3-yl)-1,3-dioxo-2,3-dihydro-1H-isoindol-5-yl]-2,7-diazaspiro[3.5]nonan-7-yl}methyl)piperidin-1-yl]pyrimidin-4-yl}amino)-5-fluoro-2-oxo-1-(propan-2-yl)-1,2-dihydroquinolin-3-yl]oxy}-N-methylacetamide] |  |  | ≥ 70% | < 10 nM
10 | CNC(=O)COc1cc2cc(Nc3cc(N4CCC(CN5CCC6(CC5)CN(c5ccc7c(c5F)CN(C5CCC(=O)NC5=O)C7=O)C6(C)C)CC4)ncc3Cl)ccc2n(C(C)C)c1=O (stereo not shown) [Compound 229, 2-{[6-({5-chloro-2-[4-({2-[2-(2,6-dioxopiperidin-3-yl)-4-fluoro-1-oxo-2,3-dihydro-1H-isoindol-5-yl]-1,1-dimethyl-2,7-diazaspiro[3.5]nonan-7-yl}methyl)piperidin-1-yl]pyridin-4-yl}amino)-2-oxo-1-(propan-2-yl)-1,2-dihydroquinolin-3-yl]oxy}-N-methylacetamide] |  |  | ≥ 70% | < 10 nM

Now from value to molecule, other results behind:

Row | DC50 [1] | Dmax [1] | Structure (SMILES) | Dmax (T47D) | DC50
11 | 10 to 50 nM |  | CNC(=O)COc1cc2cc(Nc3nc(N4CCC5(CCN(CC6(F)CCN(c7c(F)ccc8c7C(=O)N(C7CCC(=O)NC7=O)C8)CC6)CC5)CC4)ncc3Cl)ccc2n(C(C)C)c1=O (stereo not shown) [Compound 152, 2-{[6-({5-chloro-2-[9-({1-[2-(2,6-dioxopiperidin-3-yl)-5-fluoro-3-oxo-2,3-dihydro-1H-isoindol-4-yl]-4-fluoropiperidin-4-yl}methyl)-3,9-diazaspiro[5.5]undecan-3-yl]pyrimidin-4-yl}amino)-2-oxo-1-(propan-2-yl)-1,2-dihydroquinolin-3-yl]oxy}-N-methylacetamide] |  | 
12 | < 10 nM | ≥ 70% | CNC(=O)COc1cc2cc(Nc3nc(N4CCC(O[C@H]5C[C@H](N6CCC(c7ccc8c(c7C)CN(C7CCC(=O)NC7=O)C8=O)CC6)C5)CC4)ncc3Cl)ccc2n(C(C)C)c1=O (stereo partly shown) [Compound 197] |  | 
13 | ≥ 100 nM | ≥ 70% | CNC(=O)COc1cc2cc(Nc3nc(N4CCC(CN5CCC6(CC5)CN(c5ccc7c(c5)C(=O)N(C5CCC(=O)NC5=O)C7=O)C6=O)CC4)ncc3Cl)ccc2n(C(C)C)c1=O (stereo not shown) [Compound 65, 2-{[6-({5-chloro-2-[4-({2-[2-(2,6-dioxopiperidin-3-yl)-1,3-dioxo-2,3-dihydro-1H-isoindol-5-yl]-1-oxo-2,7-diazaspiro[3.5]nonan-7-yl}methyl)piperidin-1-yl]pyrimidin-4-yl}amino)-2-oxo-1-(propan-2-yl)-1,2-dihydroquinolin-3-yl]oxy}-N-methylacetamide] |  | 
14 | < 10 nM | 50 to 70% | CNC(=O)COc1cc2cc(Nc3nc(N4CCC(CN5CC[C@]6(CCN(c7ccc8c(c7)CN([C@H]7CCC(=O)NC7=O)C8=O)C6)C5)CC4)ncc3Cl)ccc2n(C(C)C)c1=O [Compound 1, 2-[(6-{[5-chloro-2-(4-{[(5S)-7-{2-[(3S)-2,6-dioxopiperidin-3-yl]-1-oxo-2,3-dihydro-1H-isoindol-5-yl}-2,7-diazaspiro[4.4]nonan-2-yl]methyl}piperidin-1-yl)pyrimidin-4-yl]amino}-2-oxo-1-(propan-2-yl)-1,2-dihydroquinolin-3-yl)oxy]-N-methylacetamide] |  | 
15 | ≥ 100 nM | ≥ 70% | CC(C)n1c(=O)c(OCC(=O)N(C)C)cc2cc(Nc3nc(N4CCC(CN5CCC6(CC5)CN(c5ccc7c(c5)C(=O)N(C5CCC(=O)NC5=O)C7=O)C6)CC4)ncc3Cl)ccc21 (stereo not shown) [Compound 55, 2-{[6-({5-chloro-2-[4-({2-[2-(2,6-dioxopiperidin-3-yl)-1,3-dioxo-2,3-dihydro-1H-isoindol-5-yl]-2,7-diazaspiro[3.5]nonan-7-yl}methyl)piperidin-1-yl]pyrimidin-4-yl}amino)-2-oxo-1-(propan-2-yl)-1,2-dihydroquinolin-3-yl]oxy}-N,N-dimethylacetamide] |  | 
16 | < 10 nM | ≥ 70% | CNC(=O)COc1cc2cc(Nc3nc(N4CCC(F)(CN5CCC6(CC5)CCN(c5cccc7c5C(=O)N(C5CCC(=O)NC5=O)C7=O)CC6)CC4)ncc3Cl)ccc2n(C(C)C)c1=O (stereo not shown) [Compound 62, 2-{[6-({5-chloro-2-[4-({9-[2-(2,6-dioxopiperidin-3-yl)-1,3-dioxo-2,3-dihydro-1H-isoindol-4-yl]-3,9-diazaspiro[5.5]undecan-3-yl}methyl)-4-fluoropiperidin-1-yl]pyrimidin-4-yl}amino)-2-oxo-1-(propan-2-yl)-1,2-dihydroquinolin-3-yl]oxy}-N-methylacetamide] |  | 
